Results published in PubChem BioAssay AID1963963 (Molecular Pharmacology Branch, DTP, NCI, 2024).
pIC50: −log10 of the molar value. Blank lines part the entries; values can stand above or below the compound they belong to.

System: 958667-338-R-J2-PDC tumor spheroids viability
Test: Anticancer human tumor 958667-338-R-J2-PDC patient-derived colon adenocarcinoma cell line growth inhibition [PI3K]
Settings: spheroids with HUVEC and MSC; for pIC50: curve of first compound; for viability, T/C: stronger effect = lower value
Procedure, shortened: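 Tumor cells grown as multi-cell spheroids with HUVEC endothelial cells and MSC fibroblast-like stroma were treated with targeted agents combined with inavolisib, alpelisib, duvelisib or copanlisib. Doses fell in half-log steps from near clinical Cmax, else from 10 microM. Viability was measured.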

[1] = second compound 0.0316 µM, first compound 0.0316 µM
[2] = second compound 0.0316 µM, first compound 0.1 µM
[3] = second compound 0.0316 µM, first compound 0.316 µM
[4] = second compound 0.0316 µM, first compound 1 µM
[5] = second compound 0.0316 µM, first compound 3.16 µM
[6] = second compound 0.0316 µM, first compound 10 µM
[7] = second compound 0.1 µM, first compound 0.0316 µM
[8] = second compound 0.1 µM, first compound 0.1 µM
[9] = second compound 0.1 µM, first compound 0.316 µM
[10] = second compound 0.1 µM, first compound 1 µM
[11] = second compound 0.1 µM, first compound 3.16 µM
[12] = second compound 0.1 µM, first compound 10 µM
[13] = second compound 0.316 µM, first compound 0.0316 µM
[14] = second compound 0.316 µM, first compound 0.1 µM
[15] = second compound 0.316 µM, first compound 0.316 µM
[16] = second compound 0.316 µM, first compound 1 µM
[17] = second compound 0.316 µM, first compound 3.16 µM
[18] = second compound 0.316 µM, first compound 10 µM
[19] = second compound 1 µM, first compound 0.0316 µM
[20] = second compound 1 µM, first compound 0.1 µM
[21] = second compound 1 µM, first compound 0.316 µM
[22] = second compound 1 µM, first compound 1 µM
[23] = second compound 1 µM, first compound 3.16 µM
[24] = second compound 1 µM, first compound 10 µM
[25] = second compound 0.00316 µM, first compound 0.0316 µM
[26] = second compound 0.00316 µM, first compound 0.1 µM
[27] = second compound 0.00316 µM, first compound 0.316 µM
[28] = second compound 0.00316 µM, first compound 1 µM
[29] = second compound 0.00316 µM, first compound 3.16 µM
[30] = second compound 0.00316 µM, first compound 10 µM
[31] = second compound 0.01 µM, first compound 0.0316 µM
[32] = second compound 0.01 µM, first compound 0.1 µM
[33] = second compound 0.01 µM, first compound 0.316 µM
[34] = second compound 0.01 µM, first compound 1 µM
[35] = second compound 0.01 µM, first compound 3.16 µM
[36] = second compound 0.01 µM, first compound 10 µM
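Note: spheroids exposed to compounds for seven days before readout.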

- pIC50 (second compound 0.0316 µM): 5.10
- pIC50 (second compound 0.1 µM): 5.19
- pIC50 (second compound 0.316 µM): 5.20
- pIC50 (second compound 1 µM): 5.20
- pIC50 (second compound 3.16 µM): 5.18
- pIC50 (second compound 10 µM): 5.21
SMILES: CCCS(=O)(=O)Nc1ccc(F)c(C(=O)c2c[nH]c3ncc(-c4ccc(Cl)cc4)cc23)c1F + CC(Nc1ncnc2nc[nH]c12)c1cc2cccc(Cl)c2c(=O)n1-c1ccccc1
- viability, T/C [1]: 121%
- viability, T/C [2]: 97.5%
- viability, T/C [3]: 99.8%
- viability, T/C [4]: 116%
- viability, T/C [5]: 131%
- viability, T/C [6]: 34.7%
- viability, T/C [7]: 95.8%
- viability, T/C [8]: 91.7%
- viability, T/C [9]: 101%
- viability, T/C [10]: 99.9%
- viability, T/C [11]: 133%
- viability, T/C [12]: 17.6%
- viability, T/C [13]: 82.2%
- viability, T/C [14]: 79.8%
- viability, T/C [15]: 92.4%
- viability, T/C [16]: 104%
- viability, T/C [17]: 134%
- viability, T/C [18]: 18.5%
- viability, T/C [19]: 102%
- viability, T/C [20]: 107%
- viability, T/C [21]: 121%
- viability, T/C [22]: 89.5%
- viability, T/C [23]: 101%
- viability, T/C [24]: 16.6%
- viability, T/C (second compound 3.16 µM, first compound 0.0316 µM): 121%
- viability, T/C (second compound 3.16 µM, first compound 0.1 µM): 119%
- viability, T/C (second compound 3.16 µM, first compound 0.316 µM): 83.4%
- viability, T/C (second compound 3.16 µM, first compound 1 µM): 116%
- viability, T/C (second compound 3.16 µM, first compound 3.16 µM): 117%
- viability, T/C (second compound 3.16 µM, first compound 10 µM): 16.2%
- viability, T/C (second compound 10 µM, first compound 0.0316 µM): 79.5%
- viability, T/C (second compound 10 µM, first compound 0.1 µM): 99%
- viability, T/C (second compound 10 µM, first compound 0.316 µM): 103%
- viability, T/C (second compound 10 µM, first compound 1 µM): 91.9%
- viability, T/C (second compound 10 µM, first compound 3.16 µM): 99.6%
- viability, T/C (second compound 10 µM, first compound 10 µM): 17.9%

- pIC50 (second compound 0.00316 µM): < 5.00
- pIC50 (second compound 0.01 µM): < 5.00
- pIC50 (second compound 0.0316 µM): < 5.00
- pIC50 (second compound 0.1 µM): < 5.00
- pIC50 (second compound 0.316 µM): < 5.00
- pIC50 (second compound 1 µM): < 5.00
SMILES: C=CC(=O)N1CCN(c2nc(=O)n(-c3c(C)ccnc3C(C)C)c3nc(-c4c(O)cccc4F)c(F)cc23)C(C)C1 (stereo unspecified) + CC(Nc1ccc2c(c1)OCCn1cc(N3C(=O)OCC3C(F)F)nc1-2)C(N)=O
- viability, T/C [25]: 85.9%
- viability, T/C [26]: 112%
- viability, T/C [27]: 82.4%
- viability, T/C [28]: 112%
- viability, T/C [29]: 101%
- viability, T/C [30]: 111%
- viability, T/C [31]: 88.2%
- viability, T/C [32]: 100%
- viability, T/C [33]: 101%
- viability, T/C [34]: 102%
- viability, T/C [35]: 115%
- viability, T/C [36]: 94.5%
- viability, T/C [1]: 87.3%
- viability, T/C [2]: 96.4%
- viability, T/C [3]: 88%
- viability, T/C [4]: 87.3%
- viability, T/C [5]: 89.7%
- viability, T/C [6]: 98.3%
- viability, T/C [7]: 80.5%
- viability, T/C [8]: 88.8%
- viability, T/C [9]: 101%
- viability, T/C [10]: 86.3%
- viability, T/C [11]: 96.7%
- viability, T/C [12]: 99.3%
- viability, T/C [13]: 58.2%
- viability, T/C [14]: 62.7%
- viability, T/C [15]: 65.2%
- viability, T/C [16]: 75.2%
- viability, T/C [17]: 72.4%
- viability, T/C [18]: 70.7%
- viability, T/C [19]: 57.2%
- viability, T/C [20]: 55.2%
- viability, T/C [21]: 75.1%
- viability, T/C [22]: 62.2%
- viability, T/C [23]: 61.3%
- viability, T/C [24]: 60.4%

- pIC50 (second compound 0.00316 µM): 5.01
- pIC50 (second compound 0.01 µM): 5.11
- pIC50 (second compound 0.0316 µM): 5.57
- pIC50 (second compound 0.1 µM): 5.90
- pIC50 (second compound 0.316 µM): > 7.50
- pIC50 (second compound 1 µM): > 7.50
SMILES: Cn1nccc1Nc1nccc(-c2ccn(C(CO)c3ccc(Cl)c(F)c3)c(=O)c2)n1 (stereo unspecified) + COc1c(OCCCN2CCOCC2)ccc2c3n(c(=NC(=O)c4cnc(N)nc4)nc12)CCN3
- viability, T/C [25]: 93.8%
- viability, T/C [26]: 98.4%
- viability, T/C [27]: 97.9%
- viability, T/C [28]: 83.5%
- viability, T/C [29]: 67.1%
- viability, T/C [30]: 49.3%
- viability, T/C [31]: 98.6%
- viability, T/C [32]: 100%
- viability, T/C [33]: 99.1%
- viability, T/C [34]: 83.3%
- viability, T/C [35]: 81.6%
- viability, T/C [36]: 41.2%
- viability, T/C [1]: 80.3%
- viability, T/C [2]: 86.7%
- viability, T/C [3]: 83.1%
- viability, T/C [4]: 57.1%
- viability, T/C [5]: 52.3%
- viability, T/C [6]: 25.6%
- viability, T/C [7]: 58.6%
- viability, T/C [8]: 55.4%
- viability, T/C [9]: 60%
- viability, T/C [10]: 55.6%
- viability, T/C [11]: 27.7%
- viability, T/C [12]: 12%
- viability, T/C [13]: 30.9%
- viability, T/C [14]: 42.4%
- viability, T/C [15]: 28.8%
- viability, T/C [16]: 31.9%
- viability, T/C [17]: 15.4%
- viability, T/C [18]: 1.75%
- viability, T/C [19]: 16.9%
- viability, T/C [20]: 13.1%
- viability, T/C [21]: 18.1%
- viability, T/C [22]: 13.6%
- viability, T/C [23]: 3.23%
- viability, T/C [24]: 1.67%
